± gives the standard deviation of the averaged measurements.
Columns and labels:
Test in all cases: level (log10 ratio to DMSO vehicle control); higher = higher biomarker level / cell amount than vehicle control
Conditions in all cases: in DMSO
[1] = compound: CNS(=O)(=O)C(F)(F)C(F)(F)C(F)(F)C(F)(F)C(F)(F)C(F)(F)C(F)(F)C(F)(F)F [N-Methylperfluorooctanesulfonamide]
Protocol: (§1)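 BioMAP Diversity Plus panel of 12 human primary cell co-culture systems (3C, 4H, LPS, SAg, BT, BF4T, BE3C, CASM3C, HDF3CGF, KF3CT, MyoF, Mphg). Compounds were added 1 h before stimulation and left for 24 h (MyoF 48 h; BT 72 h for soluble read-outs or 6 d for IgG). Biomarkers were read by ELISA, cytotoxicity by SRB, PBMC viability and proliferation by Alamar Blue. Each well value was divided by the mean of 8 DMSO control wells on the same plate and log10 transformed; duplicate blinded samples were tested at 4 concentrations.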

[2] = compound: O=C(O)C(F)(F)C(F)(F)C(F)(F)C(F)(F)C(F)(F)C(F)(F)C(F)(F)C(F)(F)Cl [9-Chloro-perfluorononanoic acid]
Protocol: as §1

[3] = compound: O=C(O)C(F)(F)C(F)(F)C(F)(F)C(F)(F)C(F)(F)F [Perfluorohexanoic acid]
Protocol: as §1

[4] = compound: O=C(O)C(F)(F)OC(F)(F)C(F)(F)OC(F)(F)C(F)(F)C(F)(F)C(F)(F)F [Perfluoro-3,6-dioxadecanoic acid]
Protocol: as §1

[5] = compound: O=P(O)(O)CCC(F)(F)C(F)(F)C(F)(F)C(F)(F)C(F)(F)C(F)(F)C(F)(F)C(F)(F)F [((Perfluorooctyl)ethyl)phosphonic acid]
Protocol: as §1

[6] = compound: O=S(=O)(O)C(F)(F)C(F)(F)C(F)(F)C(F)(F)C(F)(F)C(F)(F)C(F)(F)C(F)(F)F [Potassium perfluorooctanesulfonate]
Protocol: as §1

[7] = compound: OCC(F)(F)C(F)(F)C(F)(F)F [1H,1H-Heptafluorobutanol]
Protocol: as §1

Row | Test System | level (log10) ([1]; 6700 nM) | level (log10) ([1]; 20000 nM) | level (log10) ([1]; 60000 nM) | level (log10) ([2]; 6700 nM) | level (log10) ([2]; 20000 nM) | level (log10) ([3]; 6700 nM) | level (log10) ([3]; 20000 nM) | level (log10) ([3]; 60000 nM) | level (log10) ([4]; 6700 nM) | level (log10) ([4]; 20000 nM) | level (log10) ([4]; 60000 nM) | level (log10) ([5]; 6700 nM) | level (log10) ([5]; 20000 nM) | level (log10) ([5]; 60000 nM) | level (log10) ([6]; 6700 nM) | level (log10) ([6]; 20000 nM) | level (log10) ([6]; 60000 nM) | level (log10) ([7]; 6700 nM) | level (log10) ([7]; 20000 nM) | level (log10) ([7]; 60000 nM)
1 | CASM3C:CD87/uPAR | -0.0035 ± 0.0064 | -0.0255 ± 0.022 | -0.0495 ± 0.013 | -0.002 | 0.02 ± 0.0071 | -0.003 ± 0.027 | 0.0085 ± 0.022 | -0.012 ± 0.0014 | 0.001 ± 0.0014 | -0.0055 ± 0.0064 | -0.0175 ± 0.025 | -0.022 ± 0.013 | -0.0345 ± 0.015 | -0.041 ± 0.014 | -0.0025 ± 0.012 | -0.016 ± 0.0014 | -0.0095 ± 0.011 | -0.0045 ± 0.026 | -0.013 ± 0.016 | 0.015 ± 0.011
2 | CASM3C:CD106/VCAM-1 | -0.088 ± 0.044 | -0.14 ± 0.061 | -0.0895 ± 0.06 | -0.029 ± 0.0014 | -0.027 ± 0.016 | -0.013 ± 0.011 | -0.002 ± 0.014 | -0.029 ± 0.018 | 0.001 ± 0.011 | -0.0145 ± 0.0092 | 0.0065 ± 0.037 | -0.0325 ± 0.00071 | 0 ± 0.0014 | 0.0335 ± 0.019 | -0.0125 ± 0.019 | -0.0175 ± 0.005 | -0.104 ± 0.041 | 0.0035 ± 0.033 | 0.0065 ± 0.012 | -0.0015 ± 0.0092
3 | CASM3C:CD141/Thrombomodulin | 0.0085 ± 0.019 | -0.028 ± 0.057 | -0.002 ± 0.044 | -0.0175 ± 0.022 | -0.0225 ± 0.025 | 0.021 ± 0.021 | -0.0105 ± 0.021 | 0.0005 ± 0.044 | -0.022 | -0.0225 ± 0.00071 | 0.0315 ± 0.046 | -0.01 ± 0.0071 | -0.014 ± 0.0042 | 0.0245 ± 0.015 | 0.0235 ± 0.0021 | -0.004 ± 0.018 | -0.021 ± 0.031 | -0.01 ± 0.013 | -0.0065 ± 0.0021 | -0.0145 ± 0.005
4 | CASM3C:CD142/Tissue Factor | -0.025 ± 0.037 | -0.0115 ± 0.005 | 0.019 ± 0.011 | -0.017 ± 0.011 | 0.0055 ± 0.0064 | -0.0125 ± 0.013 | -0.019 ± 0.0042 | -0.0145 ± 0.005 | 0.001 | -0.008 ± 0.0042 | 0.0105 ± 0.052 | -0.0235 ± 0.019 | -0.006 ± 0.0099 | 0.046 ± 0.079 | -0.016 ± 0.041 | -0.014 ± 0.023 | -0.0265 ± 0.029 | 0.0005 ± 0.0078 | -0.0225 ± 0.013 | -0.015 ± 0.0057
5 | CASM3C:CXCL8/IL-8 | -0.003 ± 0.017 | 0.012 ± 0.025 | 0.035 ± 0.021 | 0.0045 ± 0.00071 | 0.0175 ± 0.016 | 0.0005 ± 0.021 | 0.007 ± 0.0099 | 0.0265 ± 0.028 | -0.0005 ± 0.013 | -0.008 | 0.023 ± 0.028 | -0.01 ± 0.02 | 0 ± 0.024 | 0.023 ± 0.048 | 0.001 ± 0.027 | 0.023 ± 0.018 | 0.048 ± 0.04 | 0.007 ± 0.0099 | 0.0045 ± 0.021 | 0.014 ± 0.04
6 | CASM3C:CXCL9/MIG | -0.0675 ± 0.026 | -0.086 ± 0.0085 | -0.05 ± 0.045 | -0.0355 ± 0.0035 | -0.0235 ± 0.013 | 0.008 ± 0.0057 | 0.001 ± 0.0042 | 0.012 ± 0.021 | -0.006 ± 0.0085 | -0.0045 ± 0.015 | 0.0155 ± 0.06 | 0.0115 ± 0.011 | 0.019 ± 0.028 | 0.041 ± 0.03 | 0.015 ± 0.0071 | 0.012 ± 0.016 | 0.09 ± 0.027 | 0.003 ± 0.0014 | -0.006 ± 0.013 | 0.015 ± 0.044
7 | CASM3C:HLA-DR | -0.0525 ± 0.039 | -0.0875 ± 0.011 | -0.0315 ± 0.079 | 0.0085 ± 0.0035 | 0.0015 ± 0.012 | 0.004 ± 0.0099 | -0.004 ± 0.0057 | -0.004 ± 0.011 | 0.002 ± 0.03 | 0.0015 ± 0.011 | 0.0245 ± 0.026 | -0.0265 ± 0.012 | -0.048 | -0.03 ± 0.081 | -0.0015 ± 0.0021 | -0.035 ± 0.028 | -0.0235 ± 0.054 | 0.015 ± 0.0057 | -0.004 ± 0.0028 | 0.011 ± 0.0028
8 | CASM3C:IL-6 | -0.0605 ± 0.036 | -0.066 ± 0.02 | -0.0025 ± 0.035 | -0.0115 ± 0.00071 | -0.0325 ± 0.019 | -0.0075 ± 0.042 | -0.0155 ± 0.0021 | -0.0125 ± 0.053 | -0.0205 ± 0.005 | -0.0205 ± 0.0021 | -0.0085 ± 0.03 | -0.0215 ± 0.06 | -0.004 ± 0.025 | 0.0865 ± 0.032 | -0.025 ± 0.0042 | -0.0285 ± 0.016 | -0.0425 ± 0.083 | 0 ± 0.033 | -0.0125 ± 0.011 | 0.018 ± 0.042
9 | CASM3C:LDLR | 0.002 ± 0.013 | -0.0385 ± 0.059 | 0.0025 ± 0.0092 | -0.011 ± 0.013 | -0.0065 ± 0.0021 | 0.001 ± 0.0028 | -0.0065 ± 0.029 | -0.0025 ± 0.039 | 0.0015 ± 0.022 | -0.016 ± 0.0028 | -0.0065 ± 0.023 | -0.0075 ± 0.0021 | -0.005 ± 0.0042 | 0.0505 ± 0.039 | 0.021 ± 0.0014 | 0.0275 ± 0.019 | -0.0205 ± 0.036 | -0.0025 ± 0.0035 | 0.012 ± 0.011 | 0.006 ± 0.03
10 | CASM3C:M-CSF | 0 ± 0.016 | 0.0105 ± 0.077 | 0.0575 ± 0.042 | -0.0235 ± 0.0035 | -0.0315 ± 0.011 | -0.0185 ± 0.019 | -0.0125 ± 0.013 | 0.0105 ± 0.0092 | -0.0055 ± 0.035 | -0.024 ± 0.0057 | 0.0115 ± 0.073 | -0.0145 ± 0.011 | -0.008 ± 0.011 | 0.045 ± 0.04 | 0.003 ± 0.028 | 0.016 ± 0.016 | -0.007 ± 0.064 | 0.006 ± 0.021 | 0.03 ± 0.041 | 0.038 ± 0.016
11 | CASM3C:PAI-I | 0.011 ± 0.0042 | 0.0075 ± 0.012 | 0.0085 ± 0.012 | -0.002 ± 0.0071 | 0.0065 ± 0.0078 | 0.0005 ± 0.005 | -0.003 ± 0.0042 | 0.0095 ± 0.005 | 0.001 ± 0.0042 | 0.003 ± 0.0071 | 0.011 ± 0.011 | -0.0035 ± 0.011 | 0.003 ± 0.0071 | 0.0015 ± 0.0078 | 0.009 | 0.004 | 0.0165 ± 0.0064 | 0.0015 ± 0.0092 | -0.0045 ± 0.00071 | 0.009 ± 0.0042
12 | CASM3C:Proliferation | 0.015 ± 0.031 | -0.006 ± 0.035 | -0.0605 ± 0.094 | -0.016 ± 0.02 | 0.004 ± 0.025 | -0.001 ± 0.018 | -0.065 | -0.0055 ± 0.015 | 0.0135 ± 0.0035 | -0.0165 ± 0.029 | 0.0015 ± 0.018 | -0.0545 ± 0.005 | -0.062 ± 0.044 | -0.101 ± 0.03 | -0.0125 ± 0.033 | 0.006 ± 0.042 | 0.023 ± 0.0099 | -0.005 ± 0.014 | 0.0045 ± 0.025 | 0.024 ± 0.055
13 | CASM3C:SRB | 0.01 ± 0.0014 | -0.0015 ± 0.0021 | 0.002 ± 0.0028 | -0.001 ± 0.0028 | 0.0045 ± 0.0078 | -0.001 | -0.013 ± 0.0028 | -0.0005 ± 0.0021 | 0.003 ± 0.0071 | -0.0025 ± 0.0092 | -0.0005 ± 0.0092 | -0.0115 ± 0.0035 | -0.017 ± 0.0028 | -0.008 ± 0.0085 | 0.011 ± 0.0042 | 0.004 | 0.006 | -0.0025 ± 0.0092 | 0.0125 ± 0.0021 | 0.009 ± 0.0028
14 | CASM3C:Serum Amyloid A | 0.0135 ± 0.0078 | 0.0445 ± 0.0078 | 0.073 ± 0.041 | 0.001 ± 0.016 | 0.0285 ± 0.011 | 0.0315 ± 0.012 | -0.003 ± 0.0028 | 0.01 ± 0.047 | 0.012 ± 0.025 | -0.004 ± 0.023 | 0.0405 ± 0.0021 | -0.0065 ± 0.044 | -0.0225 ± 0.015 | 0.083 ± 0.055 | 0.0085 ± 0.026 | 0.001 ± 0.03 | 0.0125 ± 0.057 | -0.029 ± 0.04 | 0.012 ± 0.035 | 0.018 ± 0.021

Reference: the supplement of paper PMC10331698
